Source: patent US9597407B2, “Targeted antimicrobial moieties” (C3 Jian, Inc., priority 2009, dated 2017)
Ends that are not written are not given here.

Columns and labels:
[1] = system: microorganisms; test: Peptide activities: binding, antimicrobial, growth or phenotype altering (Table 8)
From the text: In certain embodiments, peptides described herein can have multiple activities. Thus for example, a peptide can have both binding/targeting activity and antimicrobial activity. Such peptides can be used, e.g., in a chimeric construct, for any or all of these properties. Thus, for example, a peptide designated “B” in Table 8 can be used as a targeting peptide. If it is also designated G or M it can also be used for antimicrobial activity.

[2] = system: microorganisms; test: Morphology, biofilm and growth disruption by peptides (Table 5); assay type: cell-based; set-up: key: A: Peptide aggregates; B: Less hyphal formation; Clumps; Diffuse clumps and small polyps; F: Diffuse growth; H: Thin; I: Growth inhibition; Microcolony formation; Rippled; Small polyps; Thick; W: Halo formation on top, microlonies on bottom
From the text: In certain embodiments peptides that induce alterations in phenotype or other biological activities can also be used as antimicrobial effector moieties.

Substance	Activities [1]	Organism, effect (morphology, biofilm and growth disruption) ([2]; E. coli)	Organism, effect (morphology, biofilm and growth disruption) ([2]; E. faecalis)	Organism, effect (morphology, biofilm and growth disruption) ([2]; MRSA)	Organism, effect (morphology, biofilm and growth disruption) ([2]; S. epidermidis)	Organism, effect (morphology, biofilm and growth disruption) ([2]; S. pneumoniae)	Organism, effect (morphology, biofilm and growth disruption) ([2]; P. aeruginosa)	Organism, effect (morphology, biofilm and growth disruption) ([2]; C. jejuni)	Organism, effect (morphology, biofilm and growth disruption) ([2]; C. albicans)	Organism, effect (morphology, biofilm and growth disruption) ([2]; M. luteus)	Organism, effect (morphology, biofilm and growth disruption) ([2]; S. mutans)	Organism, effect (morphology, biofilm and growth disruption) ([2]; B. subtilis)	Organism, effect (morphology, biofilm and growth disruption) ([2]; C. jeikeium)
PF-440 (MFIISPDLFNIAVILYILFFIHDILLLILS; Peptide with targeting and/or antimicrobial activity)	G B	E. coli (R)	E. faecalis (C)	MRSA (C)	S. epidermidis (C)	S. pneumoniae (R)							
PF-443 (KLLYFFNYFENLQQVHLLVQL; Peptide with targeting and/or antimicrobial activity)	G B	E. coli (R)		MRSA (C)		S. pneumoniae (C)							
PF-450 (HRNLIILQRTIFI; Peptide with targeting and/or antimicrobial activity)	G B		E. faecalis (C)	MRSA (C)		S. pneumoniae (C)							
PF-451 (MVNYIIGSYMLYREQNNNEALRKFDITLAM; Peptide with targeting and/or antimicrobial activity)	G B	E. coli (R)	E. faecalis (C)	MRSA (C)	S. epidermidis (C)	S. pneumoniae (C)							
PF-454 (MSVFVPVTNIFMFIMSPIFNVNLLHFKVYI; Peptide with targeting and/or antimicrobial activity)	G B	E. coli (R)	E. faecalis (C)	MRSA (C)	S. epidermidis (C)	S. pneumoniae (R)	P. aeruginosa (H)						
PF-458 (ISLIIFIMLFVVALFKCITNYKHQS; Peptide with targeting and/or antimicrobial activity)	G B			MRSA (M)		S. pneumoniae (M)	P. aeruginosa (H)						
PF-460 (MEHVLPFQNTPPNIVIIYKDFTHLKSITFS; Peptide with targeting and/or antimicrobial activity)	G B	E. coli (H)	E. faecalis (C)	MRSA (C)	S. epidermidis (C)	S. pneumoniae (R)							
PF-465 (KPVGKALEEIADGKIEPVVPKEYLG; Peptide with targeting and/or antimicrobial activity)	G B					S. pneumoniae (H)							
PF-469 (YKVNYNNIDNHFNTLRH; Peptide with targeting and/or antimicrobial activity)	G B	E. coli (C)	E. faecalis (D)	MRSA (D)	S. epidermidis (D)	S. pneumoniae (D)		C. jejuni (D)					
PF-471 (MVGKIRGVTPRNDLLNANITGQLNLNYRLI; Peptide with targeting and/or antimicrobial activity)	G B	E. coli (C)	E. faecalis (C)	MRSA (D)	S. epidermidis (C)	S. pneumoniae (D)	P. aeruginosa (A)	C. jejuni (D)					
PF-475 (MREKVRFTQAFKLFWTNYFNFKGRSRRSEY; Peptide with targeting and/or antimicrobial activity)	G B		E. faecalis (R)	MRSA (S)	S. epidermidis (M)	S. pneumoniae (R)		C. jejuni (R)	C. albicans (B)				
PF-478 (HLFILKSHLKPFPPFRYTYD; Peptide with targeting and/or antimicrobial activity)	G B	E. coli (C)		MRSA (H)	S. epidermidis (C)	S. pneumoniae (C)							
PF-479 (AYILKRREEKNK; Peptide with targeting and/or antimicrobial activity)	G B					S. pneumoniae (C)							
PF-482 (LVGYVRTSGTVRSYKIN; Peptide with targeting and/or antimicrobial activity)	G B					S. pneumoniae (S)							
PF-526 (VLLLFIFQPFQKQLL-NH2)	G B	E. coli (R)		MRSA (C)	S. epidermidis (C)	S. pneumoniae (R)			C. albicans (C)				
PF-537 (LANDYYKKTKKSW; Peptide with targeting and/or antimicrobial activity)	G B					S. pneumoniae (C)							
PF-539 (SIILTKKKRRKIPLSIDSQIYKYTFKQ; Peptide with targeting and/or antimicrobial activity)	G B			MRSA (H)		S. pneumoniae (A)							
PF-543 (NILFGIIGFVVAMTAAVIVTAISIAK; Peptide with targeting and/or antimicrobial activity)	G B	E. coli (C)		MRSA (D)	S. epidermidis (D)	S. pneumoniae (D)				M. luteus (C)	S. mutans (S)		
PF-544 (FGEKQMRSWWKVHWFHP; Peptide with targeting and/or antimicrobial activity)	G B		E. faecalis (R)	MRSA (D)	S. epidermidis (D)	S. pneumoniae (M)							
PF-548 (ARPIADLIHFNSTTVTASGDVYYGPG; Peptide with targeting and/or antimicrobial activity)	G B			MRSA (M)	S. epidermidis (M)	S. pneumoniae (D)		C. jejuni (D)		M. luteus (A)		B. subtilis (C)	C. jeikeium (R)
